This is an account of results in publication PMC3607106 (Biochemistry, 2009).

In data set [1] the target is T1, MIF (Homo sapiens, UniProt P14174).
T1 sequence (P14174 2-115 limits assumed): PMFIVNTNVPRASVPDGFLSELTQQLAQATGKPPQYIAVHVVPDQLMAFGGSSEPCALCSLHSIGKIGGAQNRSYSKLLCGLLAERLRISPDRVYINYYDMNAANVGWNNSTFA
The experiment in a line: MIF tautomerase activity. It counts as biochemical.

The target in the next data set is murine MIF (Mus musculus, UniProt P34884). The experiment in a line: MIF tautomerase activity. The conditions noted are these: read-out: inhibition of the tautomerase activity. Format: biochemical.
In data set [2] the target is T1, MIF. Put plainly: Covalent modification of MIF by MALDI-TOF MS and tryptic peptide mapping. The conditions noted are these: for site of covalent modification of MIF: trypsin digestion, peptide mapping, MS/MS, 10 μM. It counts as binding.
The test system of data set [3] is MIF. The description is as above. It counts as binding, human. To be noted: 10 μM BITC, 60 min.
A further data set addresses ubiquitin (Homo sapiens, UniProt P0CG47). The experiment in a line: BITC modification specificity by MALDI-TOF. It counts as binding. To be noted: equimolar, 1 h or overnight at RT.
For the next data set, the system named is lysozyme. The experiment in a line: BITC modification specificity by MALDI-TOF. Format: binding. The conditions noted are these: equimolar, 1 h or overnight at RT.
For another data set, the target named is α-synuclein (Homo sapiens, UniProt P37840). Put plainly: BITC modification specificity by MALDI-TOF. It counts as binding. To be noted: equimolar, 1 h or overnight at RT.
Data set [4] deals with T1, MIF. Put plainly: Sedimentation velocity analytical ultracentrifugation of MIF. The conditions noted are these: MIF 10 μM preincubated with 6 μM BITC 1 h RT.
A further data set relates to human macrophages. The experiment in a line: Glucocorticoid overriding assay. It counts as cell-based.
A further data set has as its system HeLa cells. Put plainly: Phospho Akt activation by MIF. Format: cell-based, human.
Data set [5] addresses BITC-modified MIF (human MIF covalently modified at Pro1 by benzyl isothiocyanate) (human) (UniProt P14174). The experiment in a line: SEC-MALS.
For data set [6] the target is unchanged. Put plainly: AUC.
Data set [7] deals with EITC-modified MIF (human MIF covalently modified at Pro1 by ethyl isothiocyanate) (human) (UniProt P14174). Put plainly: SEC-MALS. (In general: Size exclusion chromatography separates by hydrodynamic size, large species first.)
In data set [8] the target is human macrophage migration inhibitory factor (MIF), unmodified (human) (UniProt P14174). The experiment in a line: SEC-MALS.
For data set [9] the target is unchanged. Put plainly: AUC.
The target of data set [10] is AITC-modified MIF (human MIF covalently modified at Pro1 by allyl isothiocyanate) (human) (UniProt P14174). Put plainly: SEC-MALS.
In data set [11] the target is MITC-modified MIF (human MIF covalently modified at Pro1 by methallyl isothiocyanate) (human) (UniProt P14174). The experiment in a line: SEC-MALS.
Data set [12] concerns the target 2PITC-modified MIF (human MIF covalently modified at Pro1 by 2-piperidinoethyl isothiocyanate) (human) (UniProt P14174). The experiment in a line: SEC-MALS.

In general, inhibition refers to how much of the control response was suppressed. As to `S=C=NCc1ccccc1` [BITC, Benzyl isothiocyanate], the inhibition at 10 µM at MIF [1] (read-out: inhibition of the tautomerase activity) and at murine MIF was 100% each time. The “formation of BITC-MIF adduct (MALDI-TOF)” value on MIF [2] (concentrations > 10 μM, MIF 15 μM, Tris 50 mM pH 7.4, 60 min) was “complete conversion to the singly modified form of MIF”. On MIF [2], the “site of covalent modification of MIF” value is reported as “modification takes place at the N-terminal proline residue”. Moreover, the “modification of inactive MIF proteins” value in the data set with MIF [3] (R73AΔ5, R73AΔ10 or P107) is “no modification was observed”. For the same compound, in the data set on MIF [3] (Wt, N110C and R73A), the “modification of enzymatically active forms of MIF” value is recorded as “total modification”. Moreover, the “modification of ubiquitin (MS)” value at ubiquitin is recorded as “No modification was detected”. The “modification of lysozyme (MS)” value in the data set with lysozyme is on record as “No modification was detected”. For the same compound, on α-synuclein, the “modification of α-synuclein (MS)” value was “No modification was detected”. At MIF [4], the “quaternary structure distribution of MIF (sedimentation velocity)” value is “sedimented predominantly as a single species”. In addition, in the data set on human macrophages (BITC 10 μM, MIF 100 ng/mL, Dex 100 nM, LPS 100 ng/mL, 4 h), the MIF-mediated dexamethasone overriding entry is listed as “abrogated MIF-mediated dexamethasone overriding”. Moreover, the TNF production entry in the data set on human macrophages (BITC 10 μM, LPS-stimulated, compared with dexamethasone) is “decreased TNF production even more potently than dexamethasone”. Also, the macrophage viability entry in the data set on human macrophages (culture conditions used to induce TNF production (data not shown)) is given as “did not alter macrophage viability”. Further, in the data set with HeLa cells (BITC 1 and 10 μM, MIF 50 ng/mL, 2 h), the “MIF-induced Akt phosphorylation” value is given as “inhibited MIF-induced Akt phosphorylation”. Moreover, the “baseline Akt phosphorylation” value with HeLa cells (BITC alone) is “did not modify baseline Akt phosphorylation”.
In the case of `C=C(C)CN=C=S` [MITC, methallyl Isothiocyanate], the “site of covalent modification of MIF” value at MIF [2] is listed as “shown to modify MIF at the N-terminal Pro residue”.
One may read the stoichiometry N as the number of molecules, sites or subunits per partner or assembly. For the compound “BITC-modified MIF (human MIF covalently modified at Pro1 by benzyl isothiocyanate) (from UniProt P14174 1-115) (natural protein)”, the stoichiometry N in data set [5] and in data set [6] was 3 each time.
“EITC-modified MIF (human MIF covalently modified at Pro1 by ethyl isothiocyanate) (from UniProt P14174 1-115) (natural protein)” returned a stoichiometry N in data set [7] of 3.
Consider “human macrophage migration inhibitory factor (MIF), unmodified (from UniProt P14174 1-115) (natural protein)”, for which the stoichiometry N in [8] and in [9] was 3 in each case.
As usually defined, the IC50 is the midpoint of a concentration-inhibition curve. Read a high IC50 as weaker potency in that assay. As to `S=C=NCCN1CCCCC1` [2PITC, 2-Piperidinoethyl isothiocyanate], the IC50 against MIF [1] worked out at 3.09 µM. Besides, the “site of covalent modification of MIF” value on MIF [2] was “shown to modify MIF at the N-terminal Pro residue”.
As to `S=C=NC1CC1` [CPITC, cyclopropyl isothiocyanate], the “site of covalent modification of MIF” value on MIF [2] is “shown to modify MIF at the N-terminal Pro residue”.
On to `C=CCN=C=S` [AITC, allyl isothiocyamate], for which the “site of covalent modification of MIF” value on MIF [2] is “shown to modify MIF at the N-terminal Pro residue”.
Regarding “AITC-modified MIF (human MIF covalently modified at Pro1 by allyl isothiocyanate) (from UniProt P14174 1-115) (natural protein)”, the stoichiometry N in data set [10] was 3.
Turning to “MITC-modified MIF (human MIF covalently modified at Pro1 by methallyl isothiocyanate) (from UniProt P14174 1-115) (natural protein)”, the stoichiometry N in data set [11] amounted to 3.
Turning to `CCN=C=S` [EITC, ethyl isothiocyanate], at MIF [2], the “site of covalent modification of MIF” value is given as “shown to modify MIF at the N-terminal Pro residue”.
For the compound `C[C@@H]1C[C@H]2[C@@H]3CCC4=CC(=O)C=C[C@]4(C)[C@@]3(F)[C@@H](O)C[C@]2(C)[C@@]1(O)C(=O)CO` [dexamethasone, reference compound], in the data set on human macrophages (dexamethasone 100 nM), the “TNF production by LPS-stimulated monocytes” value is recorded as “inhibited TNF production”.
Compound “2PITC-modified MIF (human MIF covalently modified at Pro1 by 2-piperidinoethyl isothiocyanate) (from UniProt P14174 1-115) (natural protein)” came in with a stoichiometry N in data set [12] of 3.
